# In US20080069814A1, “Prevention of Thrombotic Disorders with Active Vitamin D Compounds or Mimics Thereof” (Novacea, Inc., priority 2005, published 2008):
# How the values were obtained:
# thrombomodulin (“TM”) = conditions: in vitro, cultured monocytic cells including human peripheral monocytes; cited from earlier work
# TF = conditions: in vitro, cultured monocytic cells including human peripheral monocytes; cited from earlier work
# [1] = tested on: patients with prostate cancer; experiment: Phase II clinical trial: Taxotere with or without calcitriol by HDPA, cardiovascular events; type: in vivo, human; conditions: 125 patients per arm; calcitriol three 15 μg capsules once a week on the day prior to Taxotere 75 mg/m^2
# From the text: Two hundred fifty patients with prostate cancer were enrolled at 58 centers in the United States and Canada. All patients in the study received chemotherapy treatment with Taxotere®, a drug in the taxoid class of chemotherapeutic agents. […] Oral dexamethasone is also given along with the Taxotere® to minimize certain side effects (allergic reactions and fluid retention) associated with Taxotere®.
# In addition to Taxotere® and dexamethasone, half of the patients were randomly treated with calcitriol and the other half received a placebo. Calcitriol was administered as three capsules of 15 μg each once a week on the day prior to chemotherapy. […] The same Taxotere® doses of 75 mg/m^2 body surface area were administered to the patients receiving Taxotere® alone or Taxotere® in combination with calcitriol.
# [2] = tested on: venous thromboembolism (VTE); conditions: in vivo; cited from earlier work
# [3] = tested on: patients receiving heparin; conditions: cited from earlier work
# [4] = tested on: patients suffering from non-small-cell carcinoma of the lung; conditions: in vivo, sc; cited from earlier work
# [5] = tested on: women with metastatic breast cancer; conditions: cited from earlier work
compound,measurement,setting,value
"C=C1/C(=C\C=C2/CCC[C@]3(C)[C@@H]([C@H](C)CCCC(C)(C)O)CC[C@@H]23)C[C@@H](O)C[C@@H]1O [calcitriol, 1α,25-dihydroxyvitamin D3]",Expression of the anticoagulant thrombomodulin,thrombomodulin (“TM”),up-regulating the expression
same,Expression of TF,TF,down-regulating the expression
CC(=O)O[C@@]12CO[C@@H]1C[C@H](O)[C@@]1(C)C(=O)[C@H](O)C3=C(C)[C@@H](OC(=O)[C@H](O)[C@@H](NC(=O)OC(C)(C)C)c4ccccc4)C[C@@](O)([C@@H](OC(=O)c4ccccc4)[C@H]21)C3(C)C [Taxotere®],Patients who developed deep vein thrombosis or thrombophlebits,[1],six of 125
same,Patients who developed myocardial infractions or myocardial ischemia,[1],two of 125
same,Patients who had a stroke (cerebrovascular events),[1],two of 125
erythropoietin: erythropoiesis-stimulating agent,Association with VTE,[2],significantly associated with VTE
heparin,"Patients with immunologic reaction resulting in heparin-induced thrombocytopenia (HIT), average",[3],5%
"epoetin alfa: erythropoiesis-stimulating agent, FDA-approved drug EPOGEN",Median survival versus placebo,[4],significant difference in the median survival in favor of patients on the placebo arm
same,Kaplan-Meier estimated 12-month survival rate,[5]; in vivo,70%
same,Mortality at 4 months,"[5]; weekly epoetin alfa for up to a year, interim results",8.7%
same,Rate of fatal thrombotic events,"[5]; weekly epoetin alfa, interim results",1.1%
